Data set [1] deals with KMS34 (human myeloma cells). Put plainly: WST-1 proliferation assay (Example 10), KMS34. The note with it: KMS-34, WST-1, 48 hours. Type of data set: cell-based. The method, then: (§1) Cancer cells used herein were KMS34 (human myeloma cells), HeLa (human cervical cancer cells), HCT116 (human colon cancer cells; p53+/+), KATOIII (human stomach cancer cells), MDA-MB-231 (human breast cancer cells), HT-29 (human colon adenocarcinoma cells), PANC-1 (human pancreatic cancer cells), and Li-7 (human liver cancer cells). Proliferation assay of various cancer cells was performed by the WST-1 method (Cook, J A. & Mitchell, J B., Anal. Biochem., 179, 1-7, 1984) as follows. One μ1 each of PEG11(E)-TC11 and PEG11(O)-TC11 prepared in advance at target concentrations was added into each well of a 96-well microplate. Medium was added to the wells at 50 μl per well, and then mixed by tapping lightly the plate. Subsequently, KMS34 was prepared at a concentration of 5×10^5 cells/ml, and cells other than KMS34 were prepared at a concentration of 2×10^5 cells/ml. Cells were seeded at 50 μl per well (2.5×10^4 cells, 1×10^4 cells), and then incubated in a CO2 incubator (37° C., 5% CO2) for 48 hours. Ten μ1 each of cell proliferation reagent WST-1 (Roche) was added to each well after incubation, and then the resultants were mixed by lightly tapping the plate, followed by 1 hour of reaction in the CO2 incubator. Subsequently, the plate was shaken with a plate reader for 1 minute, and then absorbance was measured at 450 nm. At this time, absorbance was also measured at 595 nm as a reference wavelength. The net absorbance was obtained by subtracting the absorbance at the reference wavelength from the absorbance at 450 nm.

The test system of data set [2] is high-risk MM cells (KMS34). Put plainly: WST-1 proliferation assay (Example 11), KMS34. Type of data set: cell-based, human. The following applies: WST-1, 48 hours, FIG. 6. The method, then: (§2) Proliferation assay of cancer cells and normal cells was performed using WST-1 as follows. One μ1 each of PEG11(E)-TC11 and TC11 prepared at target concentrations was added to each well of a 96-well microplate. Medium was added to the wells at 50 μl per well, and then mixed by tapping lightly the plate. Next, high-risk MM cells (KMS34) prepared at 5×10^5 cells/ml and bone marrow stromal cell-derived normal cells (WT) prepared at 2×10^5 cells/ml were seeded at 50 μl (2.5×10^4 cells and 1×10^4 cells, respectively) per well, and then incubated in a CO2 incubator (37° C., 5% CO2) for 48 hours. Ten (10) μ1 each of cell proliferation reagent WST-1 (Roche) was added to each well after incubation, and then the resultants were mixed by lightly tapping the plate, followed by 1 hour of reaction in the CO2 incubator. Subsequently, the plate was shaken with a plate reader for 1 minute, and then absorbance was measured at 450 nm. At this time, absorbance was also measured at 595 nm as a reference wavelength. The net absorbance was obtained by subtracting the absorbance at the reference wavelength from the absorbance at 450 nm.
A general note: Formazan colour is commonly taken as a measure of viable cells.

The subject of data set [3] is bone marrow stromal cell-derived normal cells (WT). Put plainly: WST-1 proliferation assay (Example 11), normal cells. Type of data set: cell-based. The note with it: WST-1, 48 hours, FIG. 6. The method, then:
as §2

Data set [4] has as its system HT-29 (human colon adenocarcinoma cells). Put plainly: WST-1 proliferation assay (Example 10), HT-29. Type of data set: cell-based. The note with it: WST-1, 48 hours. The procedure:
as §1, with “Ten μ1 each of cell proliferation reagent WST-1 (Roche) was added to each well after incubation, and then the resultants were mixed by lightly tapping the plate, followed by 1 hour of reaction in the CO2 incubator.” left out

Data set [5] concerns PANC-1 (human pancreatic cancer cells). Put plainly: WST-1 proliferation assay (Example 10), PANC-1. Type of data set: cell-based. The note with it: WST-1, 48 hours. The procedure: as §1, with “Ten μ1 each of cell proliferation reagent WST-1 (Roche) was added to each well after incubation, and then the resultants were mixed by lightly tapping the plate, followed by 1 hour of reaction in the CO2 incubator.” left out

The subject of data set [6] is HCT116 (human colon cancer cells; p53+/+). The data set can be described thus: WST-1 proliferation assay (Example 10), HCT116. Type of data set: cell-based. The note with it: HCT-116, WST-1, 48 hours. The method, then: as §1, with “Ten μ1 each of cell proliferation reagent WST-1 (Roche) was added to each well after incubation, and then the resultants were mixed by lightly tapping the plate, followed by 1 hour of reaction in the CO2 incubator.” left out

Data set [7] can be described thus: Stability in mouse blood after intraperitoneal administration (HPLC). Type of data set: in vivo, ICR mice. The following applies: for Residual drug within the abdominal cavity: after intraperitoneal administration to mice; for Stability in mouse blood: i.p., equimolar to 20 mg/kg BW TC11, HPLC peaks 0.5-1.5 hours after administration. The procedure:
First, PEG11(E)-TC11(A) and PEG11(O)-TC11(B) were examined for stability in mouse blood. To 5-week-old male ICR mice (CLEA Japan, Tokyo, Japan), PEG11(E)-TC11 and PEG11(O)-TC11 were administered intraperitoneally at 59.1 mg/kg BW and 54.6 mg/kg BW, respectively, in such a manner that each molar concentration was equivalent to that of 20 mg/kg BW of TC11. At 0, 0.5, 1, 1.5, 4, 8, 12, and 24 hours later, a tail vein was punctured with a 26G needle for bleeding, and then about 100 μL of blood was collected using a heparinized hematocrit capillary tube (Terumo, Tokyo, Japan). After blood collection, blood was transferred into a 0.5-mL tube, and then subjected to centrifugation at 4° C. and 3,400 G for 15 minutes. Subsequently, the supernatant was collected, and then cryopreserved at −80° C. A quality control serum, Consera (registered trademark) (Nissui pharmaceutical, Tokyo, Japan) was dissolved in 3 mL of distilled water (dH2O) per bottle. After left to stand for 30 minutes, bottles were turned upside-down (mixing by inversion) and then used. Consera (190 μL) was mixed with the collected blood plasma and 10 μL of urine, thereby preparing samples. Moreover, PEG11(E)-TC11 and HOEtO-TC11 were each diluted with dH2O in such a manner that the concentrations were 0, 2, 4, 6, 8, and 10 μM, and then 10 μL of the solution at each concentration and 190 μL of Consera were mixed, thereby preparing a calibration curve sample. Sep-Pak (registered trademark) C18 solid phase extraction cartridge (Waters Associates, Massachusetts, USA) was washed with 2 mL of 100% CH3CN, and then equilibrated with 4 mL of dH2O. Each sample and a sample for preparing a calibration curve were added to the cartridge, and then rinsed with 200 μL of dH2O. Subsequently, the resultant was washed with 2 mL of dH2O, 2 mL of 40% CH3CN, and 250 μL of 100% CH3CN, and then eluted with 1 mL of 100% CH3CN. The eluate was evaporated under vacuum using a centrifugal evaporator CVE-2000 (TOKYO […] CO, LTD, Tokyo, Japan), re-dissolution was performed with 100 μL of 100% EtOH, and then filtration was performed using a chromatodisc having a pore size of 0.45 μm (GL sciences, Tokyo, Japan). The high performance liquid chromatography (High Performance Liquid Chromatography; HPLC) apparatuses used herein are the following apparatuses manufactured by JASCO (Tokyo, Japan).
HPLC analysis was conducted using Inertsil (registered trademark) ODS-3 […]×Φ4.6 mm as a stationary phase, CH3CN:dH2O=50:50 as a mobile phase, a flow rate of 0.70 mL/min, a UV detection wavelength of 267 nm, and an excitation wavelength of 380 nm, a fluorescence wavelength of 530 nm, and an injection amount of 10 μL at a column temperature of 25° C.

The subject of data set [8] is MDA-MB-231 (human breast cancer cells). Put plainly: WST-1 proliferation assay (Example 10), MDA-MB-231. Type of data set: cell-based. The following applies: WST-1, 48 hours. The procedure: as §1, with “Ten μ1 each of cell proliferation reagent WST-1 (Roche) was added to each well after incubation, and then the resultants were mixed by lightly tapping the plate, followed by 1 hour of reaction in the CO2 incubator.” left out

In data set [9] the test system is KATOIII (human stomach cancer cells). The data set can be described thus: WST-1 proliferation assay (Example 10), KATOIII. Type of data set: cell-based. The following applies: KATO III, WST-1, 48 hours. The procedure:
as §1, with “Ten μ1 each of cell proliferation reagent WST-1 (Roche) was added to each well after incubation, and then the resultants were mixed by lightly tapping the plate, followed by 1 hour of reaction in the CO2 incubator.” left out

Here are results for three molecules from patent publication US20190315775A1, “MODIFIED […] AND PHARMACEUTICAL COMPOSITION HAVING SAME AS ACTIVE INGREDIENT” (KEIO UNIVERSITY, priority 2016, published 2019).

`CC(C)c1cccc(C(C)C)c1N1C(=O)c2ccc(N)cc2C1=O` [TC11, 2-(2,6-di-isopropylphenyl)-5-amino-1H-isoindole-1,3-dione, reference compound] showed an IC50 in [1] of 2.6 µM. Further, the “Proliferation inhibitory activity against high-risk MM cells (KMS34)” value in [2] is recorded as “significant proliferation inhibitory activity”. Further, the “Proliferation inhibitory activity against bone marrow stromal cell-derived normal cells (WT)” value in data set [3] was “no proliferation inhibitory activity”.
For the molecule `COCCOCCOCCOCCOCCOCCOCCOCCOCCOCCOCCOCCOc1cc2c(cc1N)C(=O)N(c1c(C(C)C)cccc1C(C)C)C2=O` [PEG11(O)-TC11], the half-maximal inhibitory concentration (IC50) was 11.4 µM in [4]; 75 µM in [5]; 16 µM in data set [1]; 34.5 µM in data set [6]; 80 µM in data set [8]; 21 µM in data set [9]. The “Residual drug within the abdominal cavity” value in [7] is on record as “no residual drug was observed”. The “Stability in mouse blood” value in data set [7] is on record as “not degraded with esterase in blood”.
For the molecule `COCCOCCOCCOCCOCCOCCOCCOCCOCCOCCOCCOCCC(=O)OCCOc1cc2c(cc1N)C(=O)N(c1c(C(C)C)cccc1C(C)C)C2=O` [PEG11(E)-TC11], the IC50 in [4] is 20.5 µM; in data set [5], 14 µM; in data set [1], 0.67 µM; in [6] it was 9 µM; in data set [8], 11 µM; in data set [9], 7.9 µM. The “Proliferation inhibitory activity against high-risk MM cells (KMS34)” value in data set [2] is on record as “significant proliferation inhibitory activity”. Moreover, in data set [7], the “Residual drug within the abdominal cavity” value is “no residual drug was observed”. The “Stability in mouse blood” value in data set [7] is “quickly hydrolyzed with esterase in blood, and converted to HOEtO-TC11”. The “Proliferation inhibitory activity against bone marrow stromal cell-derived normal cells (WT)” value in data set [3] was “no proliferation inhibitory activity”.

The IC50 is the midpoint of a concentration-inhibition curve. Read a low IC50 as greater potency in that assay.
